Measurements taken from US11331299B2, “Medicinal use of serrulatane diterpenes” (The University of Sydney, priority 2016, dated 2022).
Where two headings read alike, the source gives them in different places.

Experiments:
adenosine A3 (h) = adenosine A3 (h) (Homo sapiens, UniProt P0DMS8); experiment: Bioprint radioligand binding assay
HMEC = experiment: OncoPanel normal cell proliferation assay (3-day); assay type: cell-based; settings: Homo sapiens, 72 h, HMEC, mammary epithelial, 3-day incubation
[1] = Keratinocyte cell viability, IL-8 assay (assay number 1244); assay type: cell-based, human; settings: human, primary human keratinocytes induced with IL-17A and TNFα; read-out: Inhibition of cell viability, Max Effect
[2] = system: primary human keratinocytes; experiment: as above; assay type: cell-based; settings: Homo sapiens, Keratinocyte; read-out: Inhibition of cell viability, Rel EC50
PPARgamma (h) = PPARgamma (h) (Homo sapiens, UniProt P37231); experiment: Bioprint radioligand binding assay
PPARgamma (h), sequence (P37231 whole entry): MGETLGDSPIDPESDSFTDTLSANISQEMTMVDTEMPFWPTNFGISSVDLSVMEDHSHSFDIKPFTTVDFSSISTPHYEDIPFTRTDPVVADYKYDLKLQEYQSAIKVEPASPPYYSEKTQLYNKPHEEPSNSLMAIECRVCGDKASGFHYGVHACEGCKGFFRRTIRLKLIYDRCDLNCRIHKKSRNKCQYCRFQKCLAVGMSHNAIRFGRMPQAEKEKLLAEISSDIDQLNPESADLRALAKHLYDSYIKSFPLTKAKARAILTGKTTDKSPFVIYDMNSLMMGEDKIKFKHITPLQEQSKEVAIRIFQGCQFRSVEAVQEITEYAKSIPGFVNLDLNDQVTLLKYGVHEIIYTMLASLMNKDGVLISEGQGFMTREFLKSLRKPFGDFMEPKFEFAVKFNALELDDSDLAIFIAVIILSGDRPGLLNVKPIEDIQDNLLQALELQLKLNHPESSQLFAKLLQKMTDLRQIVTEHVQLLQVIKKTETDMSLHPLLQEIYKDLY

cannabinoid CB2 (h) = cannabinoid CB2 (h) (Homo sapiens, UniProt P34972); experiment: Bioprint radioligand binding assay
cannabinoid CB2 (h), sequence (P34972 whole entry): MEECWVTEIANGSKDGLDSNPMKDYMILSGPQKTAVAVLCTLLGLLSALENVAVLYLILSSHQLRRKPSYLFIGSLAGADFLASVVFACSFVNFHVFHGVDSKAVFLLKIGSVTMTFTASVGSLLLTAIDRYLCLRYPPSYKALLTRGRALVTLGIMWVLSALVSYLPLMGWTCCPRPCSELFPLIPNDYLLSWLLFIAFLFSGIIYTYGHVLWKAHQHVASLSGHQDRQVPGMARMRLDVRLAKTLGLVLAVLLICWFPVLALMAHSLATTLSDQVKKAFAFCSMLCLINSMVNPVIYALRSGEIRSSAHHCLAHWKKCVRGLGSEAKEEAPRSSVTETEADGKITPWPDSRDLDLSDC

[3] = molecular target: receptors (Bioprint panel) (Homo sapiens, UniProt P14416); experiment: biochemical; assay type: binding; settings: DOPAMINE D2S (h) (agonist radioligand); 10 μM; read-out: % Inhibition of Control Specific Binding
[4] = molecular target: T1, receptors (Bioprint panel) (Homo sapiens, UniProt P30556); experiment: biochemical; assay type: binding; settings: A[…] AT1 (h) (antagonist radioligand); 10 μM; read-out: % Inhibition of Control Specific Binding
T1 construct: other: ANGIOTENSIN II AT1 (h) (antagonist radioligand); 10 μM

[5] = molecular target: receptors (Bioprint panel) (Homo sapiens, UniProt P18089); experiment: biochemical; assay type: binding; settings: […] alpha 2B (h) (antagonist radioligand); 10 μM; read-out: % Inhibition of Control Specific Binding
[6] = molecular target: receptors (Bioprint panel) (Homo sapiens, UniProt P07550); experiment: biochemical; assay type: binding; settings: […] beta 2 (h) (agonist radioligand); 10 μM; read-out: % Inhibition of Control Specific Binding
receptors (Bioprint panel) (Homo sapiens, UniProt P07550), sequence (P07550 whole entry): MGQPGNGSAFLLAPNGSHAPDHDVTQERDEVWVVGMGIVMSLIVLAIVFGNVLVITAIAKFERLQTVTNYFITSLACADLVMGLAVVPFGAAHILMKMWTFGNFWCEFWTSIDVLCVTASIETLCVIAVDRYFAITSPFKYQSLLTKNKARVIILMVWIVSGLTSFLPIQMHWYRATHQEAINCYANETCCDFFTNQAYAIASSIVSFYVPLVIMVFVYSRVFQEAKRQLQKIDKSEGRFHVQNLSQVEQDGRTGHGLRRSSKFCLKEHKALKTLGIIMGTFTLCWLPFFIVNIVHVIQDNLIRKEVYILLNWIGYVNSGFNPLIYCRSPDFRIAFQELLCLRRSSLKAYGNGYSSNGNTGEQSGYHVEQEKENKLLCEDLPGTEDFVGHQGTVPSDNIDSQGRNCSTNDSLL

[7] = molecular target: receptors (Bioprint panel) (Homo sapiens, UniProt P37288); experiment: biochemical; assay type: binding; settings: VASOPRESSIN V1a (h) (agonist radioligand); 10 μM; read-out: % Inhibition of Control Specific Binding
receptors (Bioprint panel) (Homo sapiens, UniProt P37288), sequence (P37288 whole entry): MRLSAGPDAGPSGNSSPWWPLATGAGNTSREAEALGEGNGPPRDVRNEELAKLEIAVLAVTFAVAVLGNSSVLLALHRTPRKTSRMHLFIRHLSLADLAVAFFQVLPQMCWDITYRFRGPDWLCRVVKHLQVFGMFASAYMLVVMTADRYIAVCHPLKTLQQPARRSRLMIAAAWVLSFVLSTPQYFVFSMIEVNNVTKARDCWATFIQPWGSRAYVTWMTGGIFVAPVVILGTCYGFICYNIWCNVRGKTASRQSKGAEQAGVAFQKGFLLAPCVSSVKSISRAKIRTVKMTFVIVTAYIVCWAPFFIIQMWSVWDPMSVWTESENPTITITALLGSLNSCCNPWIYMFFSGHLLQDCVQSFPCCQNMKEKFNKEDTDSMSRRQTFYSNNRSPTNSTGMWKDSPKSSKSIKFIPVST

[8] = molecular target: receptors (Bioprint panel) (Homo sapiens, UniProt Q9H3N8); experiment: biochemical; assay type: binding; settings: HISTAMINE H4 (h) (agonist radioligand); 10 μM; read-out: % Inhibition of Control Specific Binding
receptors (Bioprint panel) (Homo sapiens, UniProt Q9H3N8), sequence (Q9H3N8 whole entry): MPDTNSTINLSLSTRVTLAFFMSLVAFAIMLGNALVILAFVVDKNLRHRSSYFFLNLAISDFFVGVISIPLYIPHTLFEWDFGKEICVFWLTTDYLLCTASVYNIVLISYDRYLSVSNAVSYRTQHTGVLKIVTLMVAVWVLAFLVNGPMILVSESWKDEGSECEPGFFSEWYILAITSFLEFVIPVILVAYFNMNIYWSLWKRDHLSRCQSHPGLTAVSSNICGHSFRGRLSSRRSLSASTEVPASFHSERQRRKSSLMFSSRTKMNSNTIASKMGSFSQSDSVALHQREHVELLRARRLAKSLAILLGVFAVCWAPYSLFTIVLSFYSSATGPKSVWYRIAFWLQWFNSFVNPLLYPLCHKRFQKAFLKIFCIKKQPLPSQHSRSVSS

[9] = molecular target: receptors (Bioprint panel) (Homo sapiens, UniProt P30411); experiment: biochemical; assay type: binding; settings: BRADYKININ B2 (h) (agonist radioligand); 10 μM; read-out: % Inhibition of Control Specific Binding
[10] = molecular target: receptors (Bioprint panel) (Rattus norvegicus, UniProt P28565); experiment: biochemical; assay type: binding; settings: read-out: % Inhibition of Control Specific Binding
[11] = molecular target: receptors (Bioprint panel) (Homo sapiens, UniProt P41143); experiment: biochemical; assay type: binding; settings: OPIOD & OPIOID-LIKE delta (DOP) (h) (agonist radioligand); 10 μM; read-out: % Inhibition of Control Specific Binding
[12] = molecular target: receptors (Bioprint panel) (Rattus norvegicus, UniProt Q02294); experiment: biochemical; assay type: binding; settings: Ca2+ channel (N) (antagonist radioligand); 10 μM; read-out: % Inhibition of Control Specific Binding
[13] = molecular target: receptors (Bioprint panel) (Homo sapiens, UniProt P08913); experiment: biochemical; assay type: binding; settings: […] alpha 2A (h) (antagonist radioligand); 10 μM; read-out: % Inhibition of Control Specific Binding
[14] = molecular target: receptors (Bioprint panel) (Homo sapiens, UniProt O43193); experiment: biochemical; assay type: binding; settings: motilin(h) (agonist radioligand); 10 μM; read-out: % Inhibition of Control Specific Binding
[15] = molecular target: receptors (Bioprint panel) (Homo sapiens, UniProt P08172); experiment: biochemical; assay type: binding; settings: […] M2 (h) (antagonist radioligand); 10 μM; read-out: % Inhibition of Control Specific Binding
receptors (Bioprint panel) (Homo sapiens, UniProt P08172), sequence (P08172 whole entry): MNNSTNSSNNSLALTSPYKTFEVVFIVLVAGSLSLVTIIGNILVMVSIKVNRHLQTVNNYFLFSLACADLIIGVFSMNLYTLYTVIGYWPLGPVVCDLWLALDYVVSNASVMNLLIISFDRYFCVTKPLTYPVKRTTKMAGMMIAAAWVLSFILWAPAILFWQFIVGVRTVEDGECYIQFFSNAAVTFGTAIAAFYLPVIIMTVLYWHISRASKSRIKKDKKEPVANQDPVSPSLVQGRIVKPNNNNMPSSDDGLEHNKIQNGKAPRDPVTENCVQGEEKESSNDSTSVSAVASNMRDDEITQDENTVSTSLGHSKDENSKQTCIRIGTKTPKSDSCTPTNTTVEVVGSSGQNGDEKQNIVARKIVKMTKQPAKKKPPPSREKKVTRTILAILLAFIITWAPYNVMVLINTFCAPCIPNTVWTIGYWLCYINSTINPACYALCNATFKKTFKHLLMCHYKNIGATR

[16] = molecular target: receptors (Bioprint panel) (Homo sapiens, UniProt P32241); experiment: biochemical; assay type: binding; settings: […] VPAC1 (VIP1) (h) (agonist radioligand); 10 μM; read-out: % Inhibition of Control Specific Binding
receptors (Bioprint panel) (Homo sapiens, UniProt P32241), sequence (P32241 31-457): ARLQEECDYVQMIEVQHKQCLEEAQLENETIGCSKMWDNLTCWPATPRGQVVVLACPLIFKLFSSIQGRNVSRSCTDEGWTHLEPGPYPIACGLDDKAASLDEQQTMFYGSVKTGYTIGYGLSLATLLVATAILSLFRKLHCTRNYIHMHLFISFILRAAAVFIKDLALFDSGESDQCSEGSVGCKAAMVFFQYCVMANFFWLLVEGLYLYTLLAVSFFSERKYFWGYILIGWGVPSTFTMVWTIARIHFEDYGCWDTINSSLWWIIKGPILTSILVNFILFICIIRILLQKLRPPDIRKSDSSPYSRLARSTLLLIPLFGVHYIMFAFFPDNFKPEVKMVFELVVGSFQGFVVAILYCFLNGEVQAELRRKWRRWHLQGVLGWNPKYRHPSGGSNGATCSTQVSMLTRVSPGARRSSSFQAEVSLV

[17] = molecular target: receptors (Bioprint panel) (Homo sapiens, UniProt P03372); experiment: biochemical; assay type: binding; settings: Estrogen ER alpha (h) (agonist radioligand); 10 μM; read-out: % Inhibition of Control Specific Binding
[18] = molecular target: receptors (Bioprint panel) (Homo sapiens, UniProt Q13639); experiment: biochemical; assay type: binding; settings: read-out: % Inhibition of Control Specific Binding
receptors (Bioprint panel) (Homo sapiens, UniProt Q13639), sequence (Q13639 other isoform, or with tags, fused parts or gaps): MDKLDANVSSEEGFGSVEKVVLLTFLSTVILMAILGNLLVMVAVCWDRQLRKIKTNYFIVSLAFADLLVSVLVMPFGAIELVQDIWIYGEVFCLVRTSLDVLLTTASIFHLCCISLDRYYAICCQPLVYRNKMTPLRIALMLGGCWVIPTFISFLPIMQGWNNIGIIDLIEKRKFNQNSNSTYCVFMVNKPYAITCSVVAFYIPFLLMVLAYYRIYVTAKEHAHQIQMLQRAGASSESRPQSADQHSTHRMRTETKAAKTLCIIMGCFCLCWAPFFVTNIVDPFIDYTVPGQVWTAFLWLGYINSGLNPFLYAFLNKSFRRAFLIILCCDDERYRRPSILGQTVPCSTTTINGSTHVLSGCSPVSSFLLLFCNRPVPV

[19] = molecular target: receptors (Bioprint panel) (Homo sapiens, UniProt P25103); experiment: biochemical; assay type: binding; settings: NEUROKININ NK1 (h) (agonist radioligand); 10 μM; read-out: % Inhibition of Control Specific Binding
[20] = molecular target: cholecystokinin CCK1 (CCKA) (h) (Homo sapiens, UniProt P32238); experiment: Bioprint radioligand binding assay
cholecystokinin CCK1 (CCKA) (h), sequence (P32238 whole entry): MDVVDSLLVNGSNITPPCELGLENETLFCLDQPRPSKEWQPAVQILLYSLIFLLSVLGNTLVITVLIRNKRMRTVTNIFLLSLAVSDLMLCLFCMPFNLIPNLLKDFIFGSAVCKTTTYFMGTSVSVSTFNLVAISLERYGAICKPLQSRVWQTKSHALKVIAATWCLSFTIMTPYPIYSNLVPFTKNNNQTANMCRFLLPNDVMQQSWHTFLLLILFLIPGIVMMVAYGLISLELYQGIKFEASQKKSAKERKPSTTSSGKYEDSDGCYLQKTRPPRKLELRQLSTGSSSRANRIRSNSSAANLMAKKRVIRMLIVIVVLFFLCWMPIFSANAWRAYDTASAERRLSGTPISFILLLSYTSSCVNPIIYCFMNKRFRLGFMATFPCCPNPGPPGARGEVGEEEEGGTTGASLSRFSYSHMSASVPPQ

[21] = system: human CD4-positive T-cells; experiment: T-cell viability/proliferation (assay number 1299); assay type: cell-based
PRMT3 (h) = PRMT3 (h) (Homo sapiens, UniProt O60678); settings: read-out: Reference: (IC50 not given); cited from earlier work
PRMT3 (h), sequence (O60678 whole entry): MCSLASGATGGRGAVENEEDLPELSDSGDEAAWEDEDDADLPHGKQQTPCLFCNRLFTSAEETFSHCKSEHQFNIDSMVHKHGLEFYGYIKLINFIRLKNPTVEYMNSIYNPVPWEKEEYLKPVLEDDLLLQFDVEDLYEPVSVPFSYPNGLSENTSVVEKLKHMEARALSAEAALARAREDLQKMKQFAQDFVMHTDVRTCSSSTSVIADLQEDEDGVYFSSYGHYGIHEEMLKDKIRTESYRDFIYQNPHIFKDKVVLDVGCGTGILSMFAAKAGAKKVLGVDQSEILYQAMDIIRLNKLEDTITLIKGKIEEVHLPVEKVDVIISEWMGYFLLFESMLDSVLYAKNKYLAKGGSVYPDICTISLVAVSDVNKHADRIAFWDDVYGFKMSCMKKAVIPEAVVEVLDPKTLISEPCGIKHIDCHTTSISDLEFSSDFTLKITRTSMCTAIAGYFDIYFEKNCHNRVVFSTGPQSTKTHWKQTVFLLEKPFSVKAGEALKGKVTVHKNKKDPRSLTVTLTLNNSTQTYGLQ

[22] = read-out: % inhibition of control specific binding

adenosine A3 (h), sequence (P0DMS8 whole entry): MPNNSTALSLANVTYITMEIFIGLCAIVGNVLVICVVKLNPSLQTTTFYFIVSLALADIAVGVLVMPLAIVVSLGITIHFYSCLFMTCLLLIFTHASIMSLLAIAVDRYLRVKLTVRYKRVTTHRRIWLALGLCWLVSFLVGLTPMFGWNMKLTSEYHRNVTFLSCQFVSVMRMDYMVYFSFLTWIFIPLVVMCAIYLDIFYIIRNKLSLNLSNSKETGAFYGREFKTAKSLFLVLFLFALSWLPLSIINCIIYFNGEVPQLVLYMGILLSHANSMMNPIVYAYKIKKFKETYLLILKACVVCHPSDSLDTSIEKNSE

Compound: CC(C)=CCC[C@H](CO)[C@@H]1CC[C@@H](C)c2c1cc(C)c(O)c2O [Compound 1, 7,8,18-trihydroxyserrulat-14-ene]
- inhibition at 10 µM (adenosine A3 (h); ADENOSINE A3 (h) (agonist radioligand), read-out: % Inhibition of Control Specific Binding): 92%
- inhibition at 10 µM (adenosine A3 (h); [22]): 92%
- EC50 (HMEC; read-out: Cell Count EC50): 30 µM
- GI50 (HMEC; read-out: Cell Count GI50): 6.39 µM
- IC50 (HMEC; read-out: Cell Count IC50): 30 µM
- cytotoxicity [1]: 101%
- EC50 [2]: 0.246 µM
- inhibition at 10 µM (PPARgamma (h); PPARgamma (h) (agonist radioligand), read-out: % Inhibition of Control Specific Binding): 91%
- inhibition at 10 µM (PPARgamma (h); [22]): 91%
- inhibition at 10 µM (cannabinoid CB2 (h); CANNABINOID CB2 (h) (agonist radioligand), read-out: % Inhibition of Control Specific Binding): 71%
- inhibition at 10 µM (cannabinoid CB2 (h); [22]): 71%
- inhibition at 10 µM [3]: 59%
- inhibition at 10 µM [4]: 60%
- inhibition at 10 µM [5]: 7%
- inhibition at 10 µM [6]: 2%
- inhibition at 10 µM [7]: 12%
- inhibition at 10 µM [8]: 23%
- inhibition at 10 µM [9]: -37%
- inhibition at 10 µM [10]: 18%
- inhibition at 10 µM [11]: 62%
- inhibition at 10 µM [12]: 5%
- inhibition at 10 µM [13]: 35%
- inhibition at 10 µM [14]: -12%
- inhibition at 10 µM [15]: 1%
- inhibition at 10 µM [16]: -9%
- inhibition at 10 µM [17]: 40%
- inhibition at 10 µM [18]: 2%
- inhibition at 10 µM [19]: 62%
- inhibition at 10 µM ([20]; CHOLECYSTOKININ CCK1 (CCKA) (h) (agonist radioligand), read-out: % Inhibition of Control Specific Binding): 81%
- inhibition at 10 µM [20, 22]: 81%
- Emax ([21]; read-out: Inhibition of cell proliferation, Max Effect): 123%
- EC50 ([21]; read-out: Inhibition of cell proliferation, Rel EC50): 0.587 µM

Compound: Nc1ncnc2c1ncn2[C@@H]1O[C@H](CSCC[C@H](N)C(=O)O)[C@@H](O)[C@H]1O [SAH]
- IC50 (PRMT3 (h)): 0.86 µM
